Consider two molecules from article PMC3961306, “Comparison of the Cancer Gene Targeting and Biochemical Selectivities of All Targeted Kinase Inhibitors Approved for Clinical Use” (PLoS ONE, 2014).

Molecules are shown by their SMILES.

Test in all cases: Kinase profiling in a biochemical assay panel (mobility shift assays and ELISA), %-inhibition at 1 μM; selectivity entropy
For orientation: ELISA stands for enzyme-linked immunosorbent assay.

The target in assay [1] is panel of more than 300 wild-type and mutant kinases (313 kinase panel) (Homo sapiens, UniProt P06241). The following applies: kinase FYN; compound at 1 μM.
For assay [2], the target named is panel of more than 300 wild-type and mutant kinases (313 kinase panel) (Homo sapiens, UniProt P08581, Y1235D). The following applies: kinase MET(Y1235D); compound at 1 μM.
Assay [3] has as its target panel of more than 300 wild-type and mutant kinases (313 kinase panel) (Homo sapiens, UniProt P22455, V550E). The following applies: kinase FGFR4(V550E); compound at 1 μM.
The target of assay [4] is panel of more than 300 wild-type and mutant kinases (313 kinase panel) (Homo sapiens, UniProt P22607). The note with it: kinase FGFR3; compound at 1 μM.
Assay [5] has as its target panel of more than 300 wild-type and mutant kinases (313 kinase panel) (Homo sapiens, UniProt P23458). The following applies: kinase JAK1; compound at 1 μM.
For assay [6], the target named is panel of more than 300 wild-type and mutant kinases (313 kinase panel) (Homo sapiens, UniProt P48729). The following applies: kinase CK1α; 1 μM compound.
The target of assay [7] is panel of more than 300 wild-type and mutant kinases (313 kinase panel) (Homo sapiens, UniProt P49137). The note with it: kinase MAPKAPK2; compound at 1 μM.
Assay [8] has as its target panel of more than 300 wild-type and mutant kinases (313 kinase panel) (Homo sapiens, UniProt P49841). The following applies: kinase GSK3β; compound at 1 μM.
Assay [9] concerns the target T1, panel of more than 300 wild-type and mutant kinases (313 kinase panel) (Homo sapiens, UniProt P52333).
T1 sequence (P52333 1-1124): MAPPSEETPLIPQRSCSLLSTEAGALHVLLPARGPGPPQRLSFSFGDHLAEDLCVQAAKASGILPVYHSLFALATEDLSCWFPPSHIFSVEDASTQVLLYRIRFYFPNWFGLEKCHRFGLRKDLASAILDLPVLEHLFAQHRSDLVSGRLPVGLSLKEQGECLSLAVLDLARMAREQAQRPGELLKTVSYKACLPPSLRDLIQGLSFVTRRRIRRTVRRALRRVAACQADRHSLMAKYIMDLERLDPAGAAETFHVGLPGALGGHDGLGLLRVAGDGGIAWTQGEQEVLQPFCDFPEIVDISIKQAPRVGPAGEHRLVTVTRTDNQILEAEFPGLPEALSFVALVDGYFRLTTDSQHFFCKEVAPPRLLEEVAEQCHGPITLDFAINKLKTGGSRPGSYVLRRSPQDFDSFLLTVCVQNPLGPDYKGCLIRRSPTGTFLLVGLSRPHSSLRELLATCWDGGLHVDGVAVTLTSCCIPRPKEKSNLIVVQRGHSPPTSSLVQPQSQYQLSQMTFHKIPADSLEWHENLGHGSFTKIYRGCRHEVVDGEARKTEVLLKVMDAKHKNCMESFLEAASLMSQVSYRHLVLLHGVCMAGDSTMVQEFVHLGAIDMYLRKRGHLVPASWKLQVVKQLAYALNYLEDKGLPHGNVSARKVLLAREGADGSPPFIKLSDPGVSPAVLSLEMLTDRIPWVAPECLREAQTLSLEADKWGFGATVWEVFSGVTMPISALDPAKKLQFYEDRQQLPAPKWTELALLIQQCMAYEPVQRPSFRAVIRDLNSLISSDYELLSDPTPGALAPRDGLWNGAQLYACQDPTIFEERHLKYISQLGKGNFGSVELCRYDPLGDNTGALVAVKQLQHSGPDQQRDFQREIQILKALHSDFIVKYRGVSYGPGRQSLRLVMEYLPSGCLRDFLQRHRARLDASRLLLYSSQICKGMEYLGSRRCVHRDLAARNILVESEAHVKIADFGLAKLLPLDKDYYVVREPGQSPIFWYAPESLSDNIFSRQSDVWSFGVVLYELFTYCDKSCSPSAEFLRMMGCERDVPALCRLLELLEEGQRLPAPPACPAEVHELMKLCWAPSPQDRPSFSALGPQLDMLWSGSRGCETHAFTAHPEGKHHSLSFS
The following applies: kinase JAK3; compound at 1 μM.

Assay [10] addresses panel of more than 300 wild-type and mutant kinases (313 kinase panel) (Homo sapiens, UniProt Q02750). The following applies: kinase MAP2K1; compound at 1 μM.
The target of assay [11] is panel of more than 300 wild-type and mutant kinases (313 kinase panel) (Homo sapiens, UniProt Q08345). The following applies: kinase DDR1; compound at 1 μM.
The target of assay [12] is panel of more than 300 wild-type and mutant kinases (313 kinase panel) (Homo sapiens, UniProt Q15303). The note with it: kinase HER4; compound at 1 μM.
The target in assay [13] is panel of more than 300 wild-type and mutant kinases (313 kinase panel) (Homo sapiens, UniProt Q16539). The following applies: kinase p38α; 1 μM.
The target of assay [14] is panel of more than 300 wild-type and mutant kinases (313 kinase panel) (Homo sapiens, UniProt Q9Y3S1). The following applies: kinase WNK2; compound at 1 μM.

panel of more than 300 wild-type and mutant kinases (313 kinase panel) (Homo sapiens, UniProt P06241), sequence (P06241 whole entry, stated change not applied): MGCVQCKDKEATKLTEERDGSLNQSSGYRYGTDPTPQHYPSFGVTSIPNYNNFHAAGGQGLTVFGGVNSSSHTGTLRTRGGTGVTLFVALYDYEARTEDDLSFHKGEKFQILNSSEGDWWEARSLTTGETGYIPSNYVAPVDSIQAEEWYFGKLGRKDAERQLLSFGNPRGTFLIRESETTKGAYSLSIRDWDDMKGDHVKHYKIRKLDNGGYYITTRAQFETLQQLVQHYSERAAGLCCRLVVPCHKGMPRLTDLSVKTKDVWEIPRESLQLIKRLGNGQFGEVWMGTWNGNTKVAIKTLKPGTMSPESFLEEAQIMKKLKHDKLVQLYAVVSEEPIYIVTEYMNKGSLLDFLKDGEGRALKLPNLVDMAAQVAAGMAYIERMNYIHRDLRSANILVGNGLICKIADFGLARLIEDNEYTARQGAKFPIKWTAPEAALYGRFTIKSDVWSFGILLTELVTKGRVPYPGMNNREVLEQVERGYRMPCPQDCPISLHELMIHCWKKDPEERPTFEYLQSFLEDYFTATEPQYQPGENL
panel of more than 300 wild-type and mutant kinases (313 kinase panel) (Homo sapiens, UniProt P08581, Y1235D), sequence (P08581 25-1390 Y1235D): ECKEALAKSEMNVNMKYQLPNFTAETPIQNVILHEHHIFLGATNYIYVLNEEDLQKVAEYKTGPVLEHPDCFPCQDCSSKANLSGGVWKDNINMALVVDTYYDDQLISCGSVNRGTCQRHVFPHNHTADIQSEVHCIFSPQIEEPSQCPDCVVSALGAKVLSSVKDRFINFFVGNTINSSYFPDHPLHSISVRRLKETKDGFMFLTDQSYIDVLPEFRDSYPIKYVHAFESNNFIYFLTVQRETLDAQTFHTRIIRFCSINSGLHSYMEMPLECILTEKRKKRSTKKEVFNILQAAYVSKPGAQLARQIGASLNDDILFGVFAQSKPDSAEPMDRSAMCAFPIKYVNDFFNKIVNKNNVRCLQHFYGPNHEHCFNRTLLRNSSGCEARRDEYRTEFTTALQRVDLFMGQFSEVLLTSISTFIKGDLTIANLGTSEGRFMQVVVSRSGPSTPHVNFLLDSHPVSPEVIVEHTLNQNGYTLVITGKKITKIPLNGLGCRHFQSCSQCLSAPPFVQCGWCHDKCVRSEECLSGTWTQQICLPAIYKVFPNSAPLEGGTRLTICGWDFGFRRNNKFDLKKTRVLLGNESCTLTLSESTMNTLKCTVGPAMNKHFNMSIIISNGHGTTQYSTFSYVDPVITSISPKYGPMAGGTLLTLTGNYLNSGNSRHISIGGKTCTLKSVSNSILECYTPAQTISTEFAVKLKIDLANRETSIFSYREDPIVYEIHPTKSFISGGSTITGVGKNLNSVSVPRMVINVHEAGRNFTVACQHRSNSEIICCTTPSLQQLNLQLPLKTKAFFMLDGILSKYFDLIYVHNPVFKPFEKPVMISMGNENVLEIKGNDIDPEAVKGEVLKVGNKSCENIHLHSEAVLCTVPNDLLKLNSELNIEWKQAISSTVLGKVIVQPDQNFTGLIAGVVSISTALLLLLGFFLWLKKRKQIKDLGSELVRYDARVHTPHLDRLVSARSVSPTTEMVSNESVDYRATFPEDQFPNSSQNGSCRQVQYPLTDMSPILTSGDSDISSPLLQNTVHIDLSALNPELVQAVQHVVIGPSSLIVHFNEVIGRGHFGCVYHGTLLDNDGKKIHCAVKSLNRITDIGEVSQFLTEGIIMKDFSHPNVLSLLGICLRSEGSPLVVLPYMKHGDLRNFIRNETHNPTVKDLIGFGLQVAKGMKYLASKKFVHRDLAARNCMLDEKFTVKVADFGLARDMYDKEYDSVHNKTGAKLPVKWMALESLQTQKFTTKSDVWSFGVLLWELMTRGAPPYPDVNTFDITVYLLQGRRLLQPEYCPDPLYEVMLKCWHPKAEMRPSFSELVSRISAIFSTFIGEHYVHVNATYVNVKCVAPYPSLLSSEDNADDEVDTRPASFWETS
panel of more than 300 wild-type and mutant kinases (313 kinase panel) (Homo sapiens, UniProt P49137), sequence (P49137 whole entry, change not shown): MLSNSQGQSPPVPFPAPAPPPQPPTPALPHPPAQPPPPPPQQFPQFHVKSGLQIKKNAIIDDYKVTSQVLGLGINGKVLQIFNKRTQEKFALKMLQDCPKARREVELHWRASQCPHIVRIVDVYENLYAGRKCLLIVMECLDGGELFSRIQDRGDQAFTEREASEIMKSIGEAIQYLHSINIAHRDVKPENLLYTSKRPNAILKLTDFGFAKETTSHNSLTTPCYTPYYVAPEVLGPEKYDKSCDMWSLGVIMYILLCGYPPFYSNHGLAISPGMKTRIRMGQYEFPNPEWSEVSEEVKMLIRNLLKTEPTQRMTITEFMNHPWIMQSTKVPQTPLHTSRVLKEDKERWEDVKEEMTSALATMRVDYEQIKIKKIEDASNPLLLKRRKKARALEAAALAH
panel of more than 300 wild-type and mutant kinases (313 kinase panel) (Homo sapiens, UniProt P22455, V550E), sequence (P22455 22-802 V550E): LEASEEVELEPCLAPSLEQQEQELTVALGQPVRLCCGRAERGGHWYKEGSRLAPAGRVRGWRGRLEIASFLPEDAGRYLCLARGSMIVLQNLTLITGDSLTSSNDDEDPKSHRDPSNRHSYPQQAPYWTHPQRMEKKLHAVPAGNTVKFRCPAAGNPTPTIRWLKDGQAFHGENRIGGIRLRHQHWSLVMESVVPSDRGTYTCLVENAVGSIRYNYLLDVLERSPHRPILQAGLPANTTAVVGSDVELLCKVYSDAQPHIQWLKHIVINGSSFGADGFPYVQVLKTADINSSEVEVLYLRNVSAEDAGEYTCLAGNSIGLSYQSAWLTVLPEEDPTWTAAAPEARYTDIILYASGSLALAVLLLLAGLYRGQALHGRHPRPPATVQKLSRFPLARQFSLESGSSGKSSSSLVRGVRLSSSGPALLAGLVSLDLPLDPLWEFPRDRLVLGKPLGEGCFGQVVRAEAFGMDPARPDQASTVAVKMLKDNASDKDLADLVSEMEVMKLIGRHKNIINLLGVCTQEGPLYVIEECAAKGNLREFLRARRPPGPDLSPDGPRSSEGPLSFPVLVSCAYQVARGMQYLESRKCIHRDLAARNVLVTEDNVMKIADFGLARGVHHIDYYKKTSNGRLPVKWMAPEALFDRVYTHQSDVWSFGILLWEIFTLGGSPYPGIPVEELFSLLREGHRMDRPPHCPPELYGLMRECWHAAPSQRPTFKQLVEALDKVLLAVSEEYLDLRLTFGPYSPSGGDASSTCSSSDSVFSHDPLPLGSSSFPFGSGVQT
panel of more than 300 wild-type and mutant kinases (313 kinase panel) (Homo sapiens, UniProt Q16539), sequence (Q16539 whole entry, change not shown): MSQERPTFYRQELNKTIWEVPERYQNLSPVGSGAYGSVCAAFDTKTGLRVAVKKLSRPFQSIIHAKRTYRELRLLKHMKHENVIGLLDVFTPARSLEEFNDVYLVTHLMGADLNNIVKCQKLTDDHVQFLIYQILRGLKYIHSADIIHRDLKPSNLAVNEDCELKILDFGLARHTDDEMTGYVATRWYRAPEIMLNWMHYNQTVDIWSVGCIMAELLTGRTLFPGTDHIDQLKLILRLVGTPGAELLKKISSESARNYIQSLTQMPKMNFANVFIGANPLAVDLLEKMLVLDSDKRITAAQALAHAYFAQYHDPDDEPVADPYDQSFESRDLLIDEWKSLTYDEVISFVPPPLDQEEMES
panel of more than 300 wild-type and mutant kinases (313 kinase panel) (Homo sapiens, UniProt P22607), sequence (P22607 23-806, change not shown): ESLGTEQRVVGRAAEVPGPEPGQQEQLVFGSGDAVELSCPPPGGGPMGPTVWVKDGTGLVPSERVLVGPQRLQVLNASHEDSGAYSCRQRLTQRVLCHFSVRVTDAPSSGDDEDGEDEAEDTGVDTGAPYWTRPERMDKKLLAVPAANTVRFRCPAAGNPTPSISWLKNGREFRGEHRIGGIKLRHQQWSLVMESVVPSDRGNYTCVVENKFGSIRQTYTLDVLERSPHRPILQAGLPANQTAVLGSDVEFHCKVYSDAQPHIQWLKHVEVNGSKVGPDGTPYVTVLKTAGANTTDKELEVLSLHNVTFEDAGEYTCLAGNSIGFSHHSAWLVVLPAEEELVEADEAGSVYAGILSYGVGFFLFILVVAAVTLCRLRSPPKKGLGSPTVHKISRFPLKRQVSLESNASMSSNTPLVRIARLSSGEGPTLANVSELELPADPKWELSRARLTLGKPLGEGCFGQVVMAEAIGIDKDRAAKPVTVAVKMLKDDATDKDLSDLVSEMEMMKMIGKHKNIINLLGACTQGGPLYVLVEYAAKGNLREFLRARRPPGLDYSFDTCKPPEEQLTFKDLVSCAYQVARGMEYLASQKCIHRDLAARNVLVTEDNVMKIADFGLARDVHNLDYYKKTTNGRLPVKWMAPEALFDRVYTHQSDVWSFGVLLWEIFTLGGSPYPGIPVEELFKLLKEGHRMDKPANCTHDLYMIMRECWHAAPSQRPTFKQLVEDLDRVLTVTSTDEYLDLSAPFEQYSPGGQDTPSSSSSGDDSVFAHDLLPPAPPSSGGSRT

In the case of `CNC(=O)c1cc(Oc2ccc(NC(=O)Nc3ccc(Cl)c(C(F)(F)F)c3)c(F)c2)ccn1` [regorafenib], the “%-inhibition of FYN” value in assay [1] amounted to 55%. Also, the “%-inhibition of MET(Y1235D)” value in assay [2] was -1.72%. Moreover, in assay [3], the “%-inhibition of FGFR4(V550E)” value is reported as -0.119%. In addition, the “%-inhibition of FGFR3” value in assay [4] came to 97%. The “%-inhibition of JAK1” value in assay [5] was determined as 31%. For the same molecule, in assay [6], the “%-inhibition, CK1α” value is -7.56%. Besides, the “%-inhibition of MAPKAPK2” value in assay [7] is listed as -21%. The “%-inhibition of GSK3β” value in assay [8] turned out to be 11%. For the same molecule, in assay [9], the “%-inhibition of JAK3” value worked out at 31%. Further, in assay [10], the “%-inhibition of MAP2K1” value is -8.57%. In addition, in [11], the “%-inhibition of DDR1” value was 101%. For the same molecule, the “%-inhibition of HER4” value in [12] is recorded as 3.81%. Also, the “%-inhibition of p38α” value in [13] turned out to be 94%. In addition, the “%-inhibition of WNK2” value in [14] is listed as -4.43%.

With `CO[C@H]1C[C@@H]2CC[C@@H](C)[C@@](O)(O2)C(=O)C(=O)N2CCCC[C@H]2C(=O)O[C@H]([C@H](C)C[C@@H]2CC[C@@H](OC(=O)C(C)(CO)CO)[C@H](OC)C2)CC(=O)[C@H](C)/C=C(\C)[C@@H](O)[C@@H](OC)C(=O)[C@H](C)C[C@H](C)/C=C/C=C/C=C/1C` [temsirolimus], the “%-inhibition of FYN” value in assay [1] was -1.39%. Also, the “%-inhibition of MET(Y1235D)” value in assay [2] is -6.4%. For the same molecule, the “%-inhibition of FGFR4(V550E)” value in assay [3] is listed as -0.119%. The “%-inhibition of FGFR3” value in assay [4] is reported as -5%. In addition, the “%-inhibition of JAK1” value in assay [5] was -7%. Also, the “%-inhibition, CK1α” value in assay [6] is recorded as -14%. In addition, in assay [7], the “%-inhibition of MAPKAPK2” value was -17%. Further, the “%-inhibition of GSK3β” value in assay [8] is given as -7.62%. Also, the “%-inhibition of JAK3” value in assay [9] is -2%. The “%-inhibition of MAP2K1” value in assay [10] is reported as 0.452%. In [11], the “%-inhibition of DDR1” value was -5.36%. For the same molecule, in [12], the “%-inhibition of HER4” value is on record as -5.46%. In addition, the “%-inhibition of p38α” value in [13] is on record as -5%. In addition, the “%-inhibition of WNK2” value in assay [14] is -7%.
